Where two headings read alike, the source gives them in different places. Each block holds one compound with its values, some of them ahead of it.
Assays:
[1] = system: BDK (MBP-BDK); test: Cell-free BDK activity assay (ADP-Glo kinase kit); assay type: biochemical; details: in-vitro
From the text: (§1) Cell-free BDK activity assay was developed based on protocols and published work of David Chuang as described in Tso et al. 2014. Briefly, The main components of the enzymatic cell-free activity assay are the kinase-BDK (MBP-BDK), its 14 kDa synthetic substrate Lip-LBD-PhP, and ATP. The detection is being done with Promega ADP-Glo™ kinase kit. The assay is robust generating an assay window (AW)>5 and Z′−factor>0.5. The concentrations of all assay components were reduced relative to published concentrations and the assay was validated using known BDK inhibitors.
(§2) Constructs: a synthetic 14 KDa peptide that serves as a substrate for BDK instead of the multimeric BCKDH. This peptide, named LBD-PhP, is composed of the lipoyl binding domain (LBD) of the BCKDH E2 subunit connected by a linker to the phosphorylation peptide (PhP) of the E1α subunit. LBD-PhP is lipoylated in vitro using the E. Coli enzyme—lipoylate ligase (Lp1A) to achieve enhancement of BDK substrate phosphorylation. Additionally, a chimeric BDK in which the kinase is fused in its N-terminus to MBP, generating-MBP-BDK to increase BDK solubility and stability.
(§3) Reaction: The ADP detection is composed of the following steps:
(§4) Kinase reaction is performed by adding BDK, lip-LBD-PhP and ATP and incubating for 60 min at room temperature. This is done in solid white 384-well plates and the total volume of the reaction is 10 μl.
(§5) ADP-Glo reagent is added to terminate the kinase reaction and to deplete the remaining ATP and incubated for 40 min.
(§6) Kinase detection reagent is added for ADP detection: The ADP is converted to ATP and using a series of enzymatic reactions the newly synthesized ATP generates a luminescent signal which is proportional to the amount of the initial ADP formed by the kinase reaction. Luminescence is measured using a plate reader (Tecan Spark 20M plate reader).
(§7) In a typical experiment the AW and Z-factor are calculated from 12 repeats of positive control (100% activity) and 12 repeats of negative control (0% activity).
(§8) Positive control (100% activity)=maximal kinase activity with ATP and substrate. Negative control (0% activity)=minimal kinase activity with ATP alone (no substrate). AW: Average100%/Average0%. Z-factor: 1−((3*STDEV100%+3*STDEV0%)/(Average100%−Average0%)).
(§9) Each 384-well plate-based screening experiment includes serial dilutions of 14 different compounds and the following controls: 1. A known BDK tool compound BT2 (for allosteric inhibitors)/Radicicol (for ATP-pocket inhibitors) 2. Twelve repeats of positive and negative controls. Analyzed compounds and tool compounds are serially diluted, 8-point half log from 50 μM to 16 nM in triplicates. The positive and negative controls are used to calculate AW and Z-factor and to enable data normalization.

[2] = system: BCKDH; details: WT and iMSUD patient derived lymphoblasts; cited from earlier work
[3] = biological target: T1, BDK (Homo sapiens, UniProt O14874); test: BDK inhibitory activity in cell culture (human lymphoblasts); assay type: cell-based
T1 construct: endogenous in cells; host or cells: human lymphoblasts

[4] = biological target: T2, BDK (MBP-BDK) (UniProt Q00972); test: Cell-free BDK activity assay (ADP-Glo kinase kit); assay type: biochemical; details: cell-free BDK activity assay
T2 construct: IC50 BDK; other: cell-free BDK activity assay; other: in-vitro; assay not specified
From the text: as §1, §2, §3, §4, §5, §6, §7, §8, §9

[5] = Plasma protein binding (mouse); assay type: in vitro ADME
From the text: (§10) Various pharmacokinetic parameters of exemplary compounds of the invention have been established in-vivo and are presented in Table 2 below.

[6] = biological target: T1, BDK; test: Cell-based ELISA of BDK activity (E1α phosphorylation level) in WT and iMSUD patient derived lymphoblasts; details: WT and mutant lymphoblasts derived from iMSUD patients
From the text: Accordingly, the inventors performed cell studies in order to test the efficacy of the exemplary compounds of the invention on the BCKDH E1α subunit phosphorylation level, as it is BDK substrate in WT and iMSUD lymphoblasts and fibroblasts. Efficacy of the tested compounds RMO-1154 and RMO-800 in 2 MSUD lymphoblasts lines has been determined using cell-based ELISA to quantify BDK activity in treated cells as monitored by the phosphorylation level of BDK substrate, E1α. Healthy donor cells and BT2 (commercially available BDK inhibitor) have been used as positive controls.

[7] = Pharmacokinetic parameters in-vivo (IV, IP, PO); details: for AUC: read-out: Exposure (AUC); for bioavailability: read-out: Oral bioavailability (F); for Vd: read-out: Volume of distribution (Vd)
From the text: as §10

[8] = Plasma protein binding (human); assay type: in vitro ADME
From the text: as §10

[9] = system: BCKA (KIV, KIC, KMV) plasma concentration; test: In-vivo BCKA plasma concentration in WT mice by LC-MS; details: for reduction of BCKA (such as KIC and/or KMV) plasma concentrations: 3 single doses a day for 7 days, day 8, WT mice
From the text: An alternative assay for assessment of BCKDH activity comprises measuring of BCKAs blood (e.g. plasma) concentration within the subject. BCKAs (such as a-keto isovalerate (abbreviated as KIV), sodium a-keto isocaproate (abbreviated as KIC), sodium a-keto β-methylvalerate (abbreviated as KMV)) are downstream metabolites of BCAAs, and the substrates of BCKDH complex, and are considered to be reliable and sensitive biomarkers for BDK inhibition and BCKDH complex activity enhancement.
BCKA blood concentration of a subject can be determined by various analytical methods, such as by LC-MS.
The inventors performed an in-vivo study by administering an exemplary compound of the invention (RMO-1154) to 8-10 week-old […] WT mice (n=5). RMO-1154 has been administered (per os, 3 single doses a day every 8 hrs, for 7 days) at various single doses (10 mg/kg, 30 mg/kg, and 100 mg/kg). At day 8, KIV, KIC and KMV plasma concentration has been determined by LC-MS.

[10] = human lymphoblasts, read-out: IC50 lymphoblasts

Compound: O=C(O)c1cc2cscc2s1
BDK inhibitory activity in-vitro (in words) [1]: significant BDK inhibitory activity

Compound: O=C(O)c1sc2cc(F)ccc2c1Cl [BT2F]
BCKDH activity (in words) [2]: increase of the BCKDH activity

Compound: O=C(O)c1sc2cc(Cl)ccc2c1Cl [BT2]
BCKDH activity (in words) [2]: increase of the BCKDH activity

Compound: CC(=O)Nc1nonc1NC(=O)c1sc2cc(Cl)ccc2c1Cl [BT3]
BCKDH activity (in words) [2]: increase of the BCKDH activity

Compound: O=C(O)c1cc2cc(F)sc2s1 [RMO-1153B, 5-fluorothieno[2,3-b]thiophene-2-carboxylic acid]
IC50 [4]: 610 nM

Further lines, with some results ahead:

IC50 [3, 10]: 100 nM
IC50 [4]: 100 nM
fraction unbound [5]: 0.012
BDK inhibitory activity (FIGS. 1A-1B, in words) [6]: BDK inhibitory activity
AUC ([7]; ip, 3 mg/kg): 14700 ng·h/mL
bioavailability ([7]; ip, 3 mg/kg): 136%
AUC ([7]; iv, 1 mg/kg): 3580 ng·h/mL
Vd ([7]; iv, 1 mg/kg): 0.16 L/kg
AUC ([7]; po, 3 mg/kg): 12700 ng·h/mL
bioavailability ([7]; po, 3 mg/kg): 118%
fraction unbound [8]: 0.008
Compound: O=C(O)c1cc2c(F)c(F)sc2s1 [RMO-800, 4,5-difluorothieno[2,3-b]thiophene-2-carboxylic acid]

IC50 [3, 10]: 170 nM
IC50 [4]: 470 nM
Compound: O=C(O)c1sc2sc(F)cc2c1F [RMO-801, 2,4-difluorothieno[2,3-b]thiophene-5-carboxylic acid]

IC50 [3, 10]: 380 nM
IC50 [4]: 800 nM
Compound: O=C(O)c1cc2c(F)sc(F)c2s1 [RMO-1149, 4,6-difluorothieno[3,4-b]thiophene-2-carboxylic acid]

IC50 ([3]; lymphoblasts cells, unit inferred): 2860 to 13600 nM
Compound: O=C(O)c1[se]c2cc(Cl)ccc2c1Cl [RMO-1152, 3,6-dichlorobenzo[b]selenophene-2-carboxylic acid]

IC50 [3, 10]: 290 nM
IC50 [4]: 490 nM
Compound: O=C(O)c1sc2sccc2c1F [RMO-1153, 4-fluorothieno[2,3-b]thiophene-5-carboxylic acid]

IC50 [3, 10]: 580 nM
IC50 [4]: 560 nM
fraction unbound [5]: 0.108
BDK inhibitory activity (FIGS. 1A-1B, in words) [6]: BDK inhibitory activity
AUC ([7]; ip, 3 mg/kg): 18000 ng·h/mL
bioavailability ([7]; ip, 3 mg/kg): 98%
AUC ([7]; iv, 1 mg/kg): 6130 ng·h/mL
Vd ([7]; iv, 1 mg/kg): 0.15 L/kg
AUC ([7]; po, 3 mg/kg): 19400 ng·h/mL
bioavailability ([7]; po, 3 mg/kg): 104%
fraction unbound [8]: 0.015
Compound: O=C(O)c1sc2cscc2c1F [RMO-1154, 3-fluorothieno[3,4-b]thiophene-2-carboxylic acid]
reduction of BCKA (such as KIC and/or KMV) plasma concentrations ([9]; 10 mg/kg per os): about 2 fold
reduction of BCKA (such as KIC and/or KMV) plasma concentrations ([9]; 30 mg/kg per os): 8-10 fold
reduction of BCKA (such as KIC and/or KMV) plasma concentrations ([9]; 100 mg/kg per os): 10-12 fold
in-vivo reduction of BCKA (KIV, KIC, KMV) concentration in plasma (FIG. 2, in words) ([9]; WT mice, day 8): dose dependent in-vivo reduction
